Assays:
HCT116 MTAP null cells = test: HCT116 proliferation assay, MTAP null cells (CellTiter-Glo, 6 days); assay type: cell-based; conditions: HCT116-MTAP null, 144 h, read-out: Protif_ HCT116-MTAP null IC50
Summary of the method: (§1)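 Readout is CellTiter-Glo luminescence after 6 days of drug exposure at 37 °C. Compounds tested as 8–9 point, 3-fold dilution series starting at 1 or 10 µM, versus DMSO only, on cells in RPMI 1640 with 10% FBS.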

HCT116 WT cells = test: HCT116 proliferation assay, WT cells (CellTiter-Glo, 6 days); assay type: cell-based; conditions: Homo sapiens, HCT-116, 144 h, read-out: Prolif_HCT116-WT IC50
Summary of the method: as §1

PRMT5/MEP50 = PRMT5/MEP50 (Homo sapiens, UniProt O14744); test: MTase-Glo methyl transferase assay, Method A (Histone H4 peptide, 1 µM MTA, 24 h pre-incubation); assay type: biochemical; design: made in house; conditions: read-out: PRMT5 MTase Glo Ki (nM, Meth. A)
Summary of the method: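 Luminescent SAH detection (MTase-Glo) after a 2 h room-temperature methylation of 1 µM biotinylated H4 (1-21) peptide by 10 nM PRMT5/MEP50 with 5 µM SAM, in 50 mM Tris pH 8.0.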

Sequence of PRMT5/MEP50 (O14744 whole entry): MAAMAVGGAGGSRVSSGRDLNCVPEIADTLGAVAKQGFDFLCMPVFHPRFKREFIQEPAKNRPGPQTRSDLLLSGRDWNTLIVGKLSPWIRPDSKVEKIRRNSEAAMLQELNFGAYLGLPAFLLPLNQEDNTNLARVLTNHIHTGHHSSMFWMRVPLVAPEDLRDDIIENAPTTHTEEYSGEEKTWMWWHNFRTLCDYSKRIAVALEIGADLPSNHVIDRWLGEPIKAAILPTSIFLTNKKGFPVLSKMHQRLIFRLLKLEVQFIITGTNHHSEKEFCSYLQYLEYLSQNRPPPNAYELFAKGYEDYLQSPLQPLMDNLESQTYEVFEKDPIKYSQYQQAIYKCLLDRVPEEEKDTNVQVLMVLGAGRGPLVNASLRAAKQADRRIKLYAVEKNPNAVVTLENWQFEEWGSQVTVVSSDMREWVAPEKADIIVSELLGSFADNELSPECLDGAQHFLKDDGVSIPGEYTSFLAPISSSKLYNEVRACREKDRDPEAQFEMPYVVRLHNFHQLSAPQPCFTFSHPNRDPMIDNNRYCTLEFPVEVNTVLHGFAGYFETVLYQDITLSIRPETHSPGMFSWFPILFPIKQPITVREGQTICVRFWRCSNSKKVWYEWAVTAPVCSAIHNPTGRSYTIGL
Sequence of PRMT5/MEP50 (Q9BQA1 whole entry partner): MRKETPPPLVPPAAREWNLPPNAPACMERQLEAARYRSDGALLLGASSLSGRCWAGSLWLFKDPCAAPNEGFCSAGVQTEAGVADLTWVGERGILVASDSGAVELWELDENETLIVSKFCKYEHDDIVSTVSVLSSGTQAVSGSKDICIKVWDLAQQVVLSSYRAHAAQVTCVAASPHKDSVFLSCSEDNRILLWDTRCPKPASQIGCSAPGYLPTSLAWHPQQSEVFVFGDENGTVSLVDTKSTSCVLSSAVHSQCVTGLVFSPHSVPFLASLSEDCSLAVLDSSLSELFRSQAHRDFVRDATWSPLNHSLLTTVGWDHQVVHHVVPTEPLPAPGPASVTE

| IC50 (HCT116 MTAP null cells) [nM] | IC50 (HCT116 WT cells) [nM] | Ki (PRMT5/MEP50) [nM] | Compound |
| --- | --- | --- | --- |
| 328 | 7010 | 0.12 | Cc1cc2nc(N)c(C)cc2cc1C(=O)N(Cc1ccc(C(F)(F)F)cn1)CC(C)C [Example 539, 2-amino-N-isobutyl-3,7-dimethyl-N-((5-(trifluoromethyl)pyridin-2-yl)methyl)quinoline-6-carboxamide] |
| 194 | 6270 | 0.17 | Cc1cc2cc(C(=O)N(Cc3ccc(S(=O)(=O)C4CC4)cn3)[C@H](C)c3ncccc3F)ccc2nc1N [Example 540, (R)-2-amino-N-((5-(cyclopropylsulfonyl)pyridin-2-yl)methyl)-N-(1-(3-fluoropyridin-2-yl)ethyl)-3-methylquinoline-6-carboxamide] |
| 198 | 4140 | 0.13 | Cc1cc2cc(C(=O)N(Cc3ccc(S(C)(=O)=O)cn3)[C@H](C)c3ncccc3F)ccc2nc1N [Example 541, (R)-2-amino-N-((5-(methylsulfonyl)pyridin-2-yl)methyl)-N-(1-(3-fluoropyridin-2-yl)ethyl)-3-methylquinoline-6-carboxamide] |
| 110 | 4180 | 0.12 | Cc1cc2cc(C(=O)N(Cc3ccc(C#N)cn3)[C@H](C)c3ncccc3F)ccc2nc1N [Example 542, (R)-2-amino-N-((5-cyanopyridin-2-yl)methyl)-N-(1-(3-fluoropyridin-2-yl)ethyl)-3-methylquinoline-6-carboxamide] |
| 568 | > 10000 | 0.59 | C#Cc1cc2cc(C(=O)N(Cc3ccc(C(F)(F)F)cn3)[C@H](C)c3ncccc3F)cnc2nc1N [Example 543, (R)-7-amino-6-ethynyl-N-(1-(3-fluoropyridin-2-yl)ethyl)-N-((5-(trifluoromethyl)pyridin-2-yl)methyl)-1,8-naphthyridine-3-carboxamide] |
| 32 | 478 | 0.41 | Cc1c(N)nc2ccc(C(=O)N(Cc3ccc(C#N)cn3)[C@H](C)c3ncccn3)cc2c1C [Example 545, 2-amino-N-((5-cyano-2-pyridinyl)methyl)-3,4-dimethyl-N-((1R)-1-(2-pyrimidinyl)ethyl)-6-quinolinecarboxamide] |
| 262 | 4390 | 1.09 | Cc1cc2cc(C(=O)N(Cc3ccc(C4CC4)cn3)CC(C)C)ccc2nc1N [Example 546, 2-amino-N-((5-cyclopropyl-2-pyridinyl)methyl)-3-methyl-N-(2-methylpropyl)-6-quinolinecarboxamide] |
| 19 | 443 | 0.02 | Cc1cc2cc(C(=O)N(Cc3ccc(C4=CCN(C(=O)OC(C)(C)C)CC4)cn3)[C@H](C)c3ncccn3)ccc2nc1N [Example 547, tert-butyl (R)-6-((2-amino-3-methyl-N-(1-(pyrimidin-2-yl)ethyl)quinoline-6-carboxamido)methyl)-3’,6′-dihydro-[3,4′-bipyridine]-1′(2’H)-carboxylate] |
| 88 | 2080 | 0.1 | CC(=O)N1CC=C(c2ccc(CN(C(=O)c3ccc4nc(N)c(C)cc4c3)[C@H](C)c3ncccn3)nc2)CC1 [Example 548, N-((1′-acetyl-1’,2’,3’,6′-tetrahydro[3,4′-bipyridin]-6-yl)methyl)-2-amino-3-methyl-N-((1R)-1-(2-pyrimidinyl)ethyl)-6-quinolinecarboxamide] |
| 275 | 5090 | 0.07 | Cc1cc2cc(C(=O)N(Cc3ncc(C#N)cc3C)[C@H](C)c3ncccn3)ccc2nc1N [Example 549, 2-amino-N-((5-cyano-3-methyl-2-pyridinyl)methyl)-3-methyl-N-((1R)-1-(2-pyrimidinyl)ethyl)-6-quinolinecarboxamide] |
| 199 | 5930 | 0.14 | Cc1cc2cc(C(=O)N(Cc3ccc(C(N)=O)cn3)[C@H](C)c3ccccc3F)ccc2nc1N [Example 550, 2-amino-N-((5-carbamoyl-2-pyridinyl)methyl)-N-((1R)-1-(2-fluorophenyl)ethyl)-3-methyl-6-quinolinecarboxamide] |
| 21 | 634 | 0.14 | COC(=O)N1CC=C(c2ccc(CN(C(=O)c3ccc4nc(N)c(C)cc4c3)[C@H](C)c3ncccn3)nc2)CC1 [Example 551, methyl 6-((((2-amino-3-methyl-6-quinolinyl)carbonyl)((1R)-1-(2-pyrimidinyl)ethyl)amino)methyl)-3’,6′-dihydro[3,4′-bipyridine]-1′(2′H)-carboxylate] |
| 220 | 2550 | 0.32 | CC(=O)N1CCC(c2ccc(CN(C(=O)c3ccc4nc(N)c(C)cc4c3)[C@H](C)c3ncccn3)nc2)CC1 [Example 552, N-((5-(1-acetyl-4-piperidinyl)-2-pyridinyl)methyl)-2-amino-3-methyl-N-((1R)-1-(2-pyrimidinyl)ethyl)-6-quinolinecarboxamide] |
| 454 | > 10000 | 0.36 | Cc1cc2cc(C(=O)N(Cc3cnc(C#N)cn3)[C@H](C)c3ncccn3)ccc2nc1N [Example 553, 2-amino-N-((5-cyano-2-pyrazinyl)methyl)-3-methyl-N-((1R)-1-(2-pyrimidinyl)ethyl)-6-quinolinecarboxamide] |
| 122 | 4280 | 0.07 | Cc1cc2cc(C(=O)N(Cc3ccc(N(C)C)nn3)[C@H](C)c3ncccn3)ccc2nc1N [Example 554, (R)-2-amino-N-((6-(dimethylamino)pyridazin-3-yl)methyl)-3-methyl-N-(1-(pyrimidin-2-yl)ethyl)quinoline-6-carboxamide] |
| 125 | 3820 | 0.07 | Cc1cc2cc(C(=O)N(Cc3ccc(N4CCOCC4)nn3)[C@H](C)c3ncccn3)ccc2nc1N [Example 555, (R)-2-amino-3-methyl-N-((6-morpholinopyridazin-3-yl)methyl)-N-(1-(pyrimidin-2-yl)ethyl)quinoline-6-carboxamide] |
| 342 | 10100 | 4.1 | Cc1cc2cc(C(=O)N(Cc3ccc(N4CC5(COC5)C4)cn3)[C@H](C)c3ncccn3)ccc2nc1N [Example 556, (R)-N-((5-(2-oxa-6-azaspiro[3.3]heptan-6-yl)pyridin-2-yl)methyl)-2-amino-3-methyl-N-(1-(pyrimidin-2-yl)ethyl)quinoline-6-carboxamide] |
| 42 | 1730 | 0.18 | Cc1cc2cc(C(=O)N(Cc3ccc(C4=CCOCC4)cn3)[C@H](C)c3ncccn3)ccc2nc1N [Example 557, (R)-2-amino-N-((5-(3,6-dihydro-2H-pyran-4-yl)pyridin-2-yl)methyl)-3-methyl-N-(1-(pyrimidin-2-yl)ethyl)quinoline-6-carboxamide] |
| 38 | 1300 | 0.08 | Cc1cc2cc(C(=O)N(Cc3ccc(C4=CCCOC4)cn3)[C@H](C)c3ncccn3)ccc2nc1N [Example 558, 2-amino-N-((5-(5,6-dihydro-2H-pyran-3-yl)-2-pyridinyl)methyl)-3-methyl-N-((1R)-1-(2-pyrimidinyl)ethyl)-6-quinolinecarboxamide] |
| 147 | 2190 | 0.07 | Cc1cc2cc(C(=O)N(Cc3ccc(C4CCOCC4)cn3)[C@H](C)c3ncccn3)ccc2nc1N [Example 559, 2-amino-3-methyl-N-((1R)-1-(2-pyrimidinyl)ethyl)-N-((5-(tetrahydro-2H-pyran-4-yl)-2-pyridinyl)methyl)-6-quinolinecarboxamide] |
| 623 | > 10000 | 0.2 | Cc1cc2cc(C(=O)N(Cc3ccc(C(=O)N(C)C)cn3)Cc3ncccc3F)ccc2nc1N [Example 560, 2-amino-N-((5-(dimethylcarbamoyl)-2-pyridinyl)methyl)-N-((3-fluoro-2-pyridinyl)methyl)-3-methyl-6-quinolinecarboxamide] |
| 895 | > 10000 | 0.3 | Cc1cc2cc(C(=O)N(Cc3ccc(C(=O)N(C)C)cn3)[C@H](C)c3ncccc3F)ccc2nc1N [Example 561, 2-amino-N-((5-(dimethylcarbamoyl)-2-pyridinyl)methyl)-N-((1R)-1-(3-fluoro-2-pyridinyl)ethyl)-3-methyl-6-quinolinecarboxamide] |
